Where “and” joins values, the source holds several entries; their conditions need not be identical. Equal values may be shown once. Toxic doses and inconclusive results are not listed.
Tested on: L1210 leukemia ip in BDF1 mice, survival T/C
Assay: NCI In Vivo Anticancer Drug Screen. Data for tumor model L1210 Leukemia (intraperitoneal) in B6D2F1 (BDF1) mice
Conditions: endpoint: mean survival time, higher = longer survival
Procedure, shortened: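 Survival endpoint. Drug-treated group vs vehicle group, expressed as T divided by C. Tumor passaged by transplantation.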

[1] = dose: 100.0 mg/kg/injection, schedule: Q04DX003 (ip), vehicle: Klucel (hydroxypropylcellulose) (HPC)
[2] = dose: 200.0 mg/kg/injection, schedule: Q04DX003 (ip), vehicle: Klucel (hydroxypropylcellulose) (HPC)
[3] = dose: 100.0 mg/kg/injection, schedule: Q04DX003 (ip), vehicle: saline
[4] = dose: 400.0 mg/kg/injection, schedule: Q04DX003 (ip), vehicle: saline
[5] = dose: 100.0 mg/kg/injection, schedule: Q01DX009 (ip), vehicle: saline with Tween-80
[6] = dose: 100.0 mg/kg/injection, schedule: Q04DX003 (ip), vehicle: saline with Tween-80
[7] = dose: 200.0 mg/kg/injection, schedule: Q01DX009 (ip), vehicle: saline with Tween-80
[8] = dose: 200.0 mg/kg/injection, schedule: Q04DX003 (ip), vehicle: saline with Tween-80
[9] = dose: 100.0 mg/kg/injection, schedule: Q01DX009 (ip), vehicle: Klucel (hydroxypropylcellulose) (HPC)
[10] = dose: 200.0 mg/kg/injection, schedule: Q01DX009 (ip), vehicle: Klucel (hydroxypropylcellulose) (HPC)
[11] = dose: 400.0 mg/kg/injection, schedule: Q04DX003 (ip), vehicle: Klucel (hydroxypropylcellulose) (HPC)

Q: With `O=NN(CCCl)C(=O)NC1CCC(NC(=O)N(CCCl)N=O)CC1` (stereo unspecified) as the compound, how does the T/C (dose: 44.0 mg/kg/injection, schedule: Q01DX001 (ip), vehicle: other) read?
A: 162 % of control and 286 % of control

Q: What about the T/C (dose: 63.0 mg/kg/injection, schedule: Q01DX001 (ip), vehicle: carboxymethylcellulose (CMC)) of the same compound?
A: 247 % of control

Q: And the T/C (dose: 67.0 mg/kg/injection, schedule: Q01DX001 (ip), vehicle: other)?
A: 168 % of control and 328 % of control

Q: And the T/C (dose: 82.0 mg/kg/injection, schedule: Q01DX001 (ip), vehicle: carboxymethylcellulose (CMC))?
A: 267 % of control

Q: What about the T/C (dose: 100.0 mg/kg/injection, schedule: Q01DX001 (ip), vehicle: other) of the same compound?
A: 305 % of control and 314 % of control

Q: And the T/C (dose: 125.0 mg/kg/injection, schedule: Q01DX001 (ip), vehicle: carboxymethylcellulose (CMC))?
A: 310 % of control

Q: What about the T/C (dose: 127.0 mg/kg/injection, schedule: Q01DX001 (ip), vehicle: carboxymethylcellulose (CMC)) of the same compound?
A: 342 % of control

Q: And the T/C (dose: 150.0 mg/kg/injection, schedule: Q01DX001 (ip), vehicle: other)?
A: 268 % of control and 180 % of control

Q: And the T/C (dose: 187.0 mg/kg/injection, schedule: Q01DX001 (ip), vehicle: carboxymethylcellulose (CMC))?
A: 290 % of control

Q: And the T/C (dose: 225.0 mg/kg/injection, schedule: Q01DX001 (ip), vehicle: other)?
A: 285 % of control and 178 % of control

Q: And the T/C (dose: 255.0 mg/kg/injection, schedule: Q01DX001 (ip), vehicle: carboxymethylcellulose (CMC))?
A: 344 % of control

Q: What about the T/C (dose: 280.0 mg/kg/injection, schedule: Q01DX001 (ip), vehicle: carboxymethylcellulose (CMC)) of the same compound?
A: 275 % of control

Q: What about the T/C (dose: 337.0 mg/kg/injection, schedule: Q01DX001 (ip), vehicle: other) of the same compound?
A: 306 % of control

Q: What about the T/C (dose: 510.0 mg/kg/injection, schedule: Q01DX001 (ip), vehicle: carboxymethylcellulose (CMC)) of the same compound?
A: 181 % of control

Q: Which results are given for `CC(C)=CCC(/C=N/N=C(N)N)C(C)C` (stereo unspecified)?
A: T/C (dose: 3.0 mg/kg/injection, schedule: Q01DX Z (ip), vehicle: saline): 96 % of control; T/C (dose: 7.0 mg/kg/injection, schedule: Q01DX Z (ip), vehicle: saline): 105 % of control; T/C (dose: 15.0 mg/kg/injection, schedule: Q01DX Z (ip), vehicle: saline): 91 % of control; T/C (dose: 15.0 mg/kg/injection, schedule: Q01DX Z (oral), vehicle: saline): 104 % of control; T/C (dose: 30.0 mg/kg/injection, schedule: Q01DX Z (ip), vehicle: saline): 94 % of control; T/C (dose: 30.0 mg/kg/injection, schedule: Q01DX Z (oral), vehicle: saline): 101 % of control; T/C (dose: 60.0 mg/kg/injection, schedule: Q01DX Z (oral), vehicle: saline): 87 % of control

Q: What does the source list for `C/C(=N\OC(=O)Nc1ccccc1)c1ccccc1`?
A: T/C (dose: 100.0 mg/kg/injection, schedule: Q01DX001 (ip), vehicle: carboxymethylcellulose (CMC)): 98 % of control; T/C (dose: 400.0 mg/kg/injection, schedule: Q01DX001 (ip), vehicle: carboxymethylcellulose (CMC)): 95 % of control

Q: `C=C(C)COc1c(C)c(C)c(OCC(C)C)c(C)c1C` was tested. Which T/C (dose: 50.0 mg/kg/injection, schedule: Q04DX003 (ip), vehicle: Klucel (hydroxypropylcellulose) (HPC)) did it give?
A: 96 % of control

Q: And the T/C [1]?
A: 93 % of control

Q: What about the T/C [2] of the same compound?
A: 93 % of control

Q: What does the source list for `N#CC1C(=O)N=C(c2ccccc2)CC1c1ccccc1` (stereo unspecified)?
A: T/C (dose: 100.0 mg/kg/injection, schedule: Q01DX001 (ip), vehicle: saline with Tween-80): 86 % of control; T/C (dose: 200.0 mg/kg/injection, schedule: Q01DX001 (ip), vehicle: saline with Tween-80): 96 % of control; T/C (dose: 400.0 mg/kg/injection, schedule: Q01DX001 (ip), vehicle: saline with Tween-80): 104 % of control

Q: How did the T/C (dose: 100.0 mg/kg/injection, schedule: Q01DX009 (ip), vehicle: saline) turn out when `Cc1cc(=O)c(CO)n[nH]1` was run?
A: 103 % of control

Q: And the T/C [3]?
A: 101 % of control

Q: And the T/C (dose: 200.0 mg/kg/injection, schedule: Q01DX009 (ip), vehicle: saline)?
A: 95 % of control

Q: And the T/C (dose: 200.0 mg/kg/injection, schedule: Q04DX003 (ip), vehicle: saline)?
A: 106 % of control

Q: What about the T/C (dose: 400.0 mg/kg/injection, schedule: Q01DX009 (ip), vehicle: saline) of the same compound?
A: 98 % of control

Q: And the T/C [4]?
A: 103 % of control

Q: Which results are given for `O=C1NC(C2CCC3CN32)C(=O)NC1C1CCC2CN21` (stereo unspecified)?
A: T/C (dose: 0.2 mg/kg/injection, schedule: Q01DX009 (ip), vehicle: saline): 102 % of control and 105 % of control; T/C (dose: 0.4 mg/kg/injection, schedule: Q01DX009 (ip), vehicle: saline): 110 % of control and 113 % of control; T/C (dose: 0.5 mg/kg/injection, schedule: Q01DX001 (ip), vehicle: Klucel (hydroxypropylcellulose) (HPC)): 101 % of control; T/C (dose: 0.8 mg/kg/injection, schedule: Q01DX009 (ip), vehicle: saline): 110 % of control; T/C (dose: 1.0 mg/kg/injection, schedule: Q01DX001 (ip), vehicle: Klucel (hydroxypropylcellulose) (HPC)): 101 % of control; T/C (dose: 1.1 mg/kg/injection, schedule: Q01DX009 (ip), vehicle: saline): 112 % of control; T/C (dose: 2.0 mg/kg/injection, schedule: Q01DX001 (ip), vehicle: Klucel (hydroxypropylcellulose) (HPC)): 151 % of control; T/C (dose: 2.7 mg/kg/injection, schedule: Q01DX009 (ip), vehicle: saline): 163 % of control; T/C (dose: 5.0 mg/kg/injection, schedule: Q01DX009 (ip), vehicle: saline): 182 % of control; T/C (dose: 10.0 mg/kg/injection, schedule: Q01DX009 (ip), vehicle: saline): 103 % of control; T/C (dose: 16.0 mg/kg/injection, schedule: Q01DX001 (ip), vehicle: Klucel (hydroxypropylcellulose) (HPC)): 164 % of control and 271 % of control; T/C (dose: 24.0 mg/kg/injection, schedule: Q01DX001 (ip), vehicle: Klucel (hydroxypropylcellulose) (HPC)): 169 % of control; T/C (dose: 36.0 mg/kg/injection, schedule: Q01DX001 (ip), vehicle: Klucel (hydroxypropylcellulose) (HPC)): 101 % of control

Q: For `CCCCCCCOCc1ccccc1`, which T/C [3] is on record?
A: 111 % of control

Q: What about the T/C (dose: 200.0 mg/kg/injection, schedule: Q04DX003 (ip), vehicle: acetone) of the same compound?
A: 94 % of control

Q: What about the T/C (dose: 300.0 mg/kg/injection, schedule: Q04DX003 (ip), vehicle: acetone) of the same compound?
A: 96 % of control

Q: What about the T/C [4] of the same compound?
A: 97 % of control

Q: Which T/C (dose: 15.0 mg/kg/injection, schedule: Q01DX Z (ip), vehicle: carboxymethylcellulose (CMC)) does the source give for `C/C(=N/N=C(N)N)c1ccc(F)cc1` here?
A: 95 % of control

Q: What about the T/C (dose: 15.0 mg/kg/injection, schedule: Q01DX Z (oral), vehicle: carboxymethylcellulose (CMC)) of the same compound?
A: 113 % of control

Q: And the T/C (dose: 30.0 mg/kg/injection, schedule: Q01DX Z (ip), vehicle: carboxymethylcellulose (CMC))?
A: 100 % of control

Q: And the T/C (dose: 30.0 mg/kg/injection, schedule: Q01DX Z (oral), vehicle: carboxymethylcellulose (CMC))?
A: 98 % of control

Q: And the T/C (dose: 60.0 mg/kg/injection, schedule: Q01DX Z (oral), vehicle: carboxymethylcellulose (CMC))?
A: 103 % of control

Q: Which results are given for `O=C(O)C1CCCCC1C(=O)Nc1ccc(F)cc1` (stereo unspecified)?
A: T/C [5]: 103 % of control; T/C [6]: 102 % of control; T/C [7]: 90 % of control; T/C [8]: 102 % of control; T/C (dose: 400.0 mg/kg/injection, schedule: Q01DX009 (ip), vehicle: saline with Tween-80): 105 % of control; T/C (dose: 400.0 mg/kg/injection, schedule: Q04DX003 (ip), vehicle: saline with Tween-80): 96 % of control

Q: `S=C(Nc1cccc(Cl)c1)Nc1cccc(Cl)c1` was tested. Which T/C [6] did it give?
A: 94 % of control

Q: What about the T/C [8] of the same compound?
A: 97 % of control

Q: Which T/C [5] does the source give for `CC(C)(Br)C(=O)c1ccco1` here?
A: 95 % of control

Q: For `CCCOCC(O)CNCCN` (stereo unspecified), which T/C [9] is on record?
A: 98 % of control

Q: What about the T/C [10] of the same compound?
A: 92 % of control

Q: What does the source list for `CC(=O)Nc1ccc(/C=N/NC(=O)c2ccc(C)cc2)cc1`?
A: T/C (dose: 50.0 mg/kg/injection, schedule: Q01DX009 (ip), vehicle: saline with Tween-80): 93 % of control; T/C [7]: 90 % of control

Q: For `O=C1Nc2ccc(Br)cc2C1=Nc1ccc(Cl)cc1`, which T/C (dose: 100.0 mg/kg/injection, schedule: Q04DX002 (ip), vehicle: Klucel (hydroxypropylcellulose) (HPC)) is on record?
A: 95 % of control

Q: What about the T/C (dose: 200.0 mg/kg/injection, schedule: Q04DX002 (ip), vehicle: Klucel (hydroxypropylcellulose) (HPC)) of the same compound?
A: 92 % of control

Q: And the T/C (dose: 400.0 mg/kg/injection, schedule: Q04DX002 (ip), vehicle: Klucel (hydroxypropylcellulose) (HPC))?
A: 89 % of control

Q: For `ClCCCN1Cc2ccccc2CCc2ccccc2C1`, which T/C [1] is on record?
A: 102 % of control

Q: What about the T/C [2] of the same compound?
A: 100 % of control

Q: And the T/C [11]?
A: 107 % of control

Q: How did the T/C (dose: 50.0 mg/kg/injection, schedule: Q01DX001 (ip), vehicle: saline) turn out when `Cc1cc(Br)c(C)cc1Br` was run?
A: 100 % of control

Q: What about the T/C (dose: 100.0 mg/kg/injection, schedule: Q01DX001 (ip), vehicle: saline) of the same compound?
A: 100 % of control

Q: What about the T/C [9] of the same compound?
A: 98 % of control

Q: What about the T/C [1] of the same compound?
A: 100 % of control

Q: What about the T/C (dose: 200.0 mg/kg/injection, schedule: Q01DX001 (ip), vehicle: saline) of the same compound?
A: 103 % of control

Q: What about the T/C [10] of the same compound?
A: 93 % of control

Q: What about the T/C [2] of the same compound?
A: 98 % of control

Q: What about the T/C (dose: 400.0 mg/kg/injection, schedule: Q01DX001 (ip), vehicle: saline) of the same compound?
A: 103 % of control

Q: What about the T/C (dose: 400.0 mg/kg/injection, schedule: Q01DX009 (ip), vehicle: Klucel (hydroxypropylcellulose) (HPC)) of the same compound?
A: 90 % of control

Q: What about the T/C [11] of the same compound?
A: 100 % of control
